Laboratory results as given in the supplement of paper PMC10307832.

Experiments:
Assay in all cases: relative viability (nuclei count vs DMSO), 5 days (fraction); higher = more cells survive
[1] = compound: O=C(O)c1ccc2c(c1)nc(Nc1cccc(Cl)c1)c1ccncc12 [Silmitasertib] + CC(C)C[C@H](NC(=O)[C@H](Cc1ccccc1)NC(=O)c1cnccn1)B(O)O [Bortezomib] (partner 0.002 µM)
Method in brief: (§1)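 A single step with final 0.05% Triton X-100, 1% formaldehyde and 1 ug/ml Hoechst fixed the cells and stained nuclei 5 days after treatment. Lung cancer cell lines in 1536-well plates had been treated by pin tool the day after seeding with one drug alone or a fixed anchor-drug dose plus five library-drug doses (not always all listed) in √10 steps, and nuclei were counted on 4× images. Relative viability is the ratio of nuclei in treated wells to nuclei in vehicle wells, taken as the median of duplicate plates.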

Silmitasertib + OSI-027 = compound: O=C(O)c1ccc2c(c1)nc(Nc1cccc(Cl)c1)c1ccncc12 [Silmitasertib] + COc1cccc2cc(-c3nc([C@H]4CC[C@H](C(=O)O)CC4)n4ncnc(N)c34)[nH]c12 [OSI-027] (partner 0.5 µM)
Method in brief: as §1

[2] = compound: O=C(O)c1ccc2c(c1)nc(Nc1cccc(Cl)c1)c1ccncc12 [Silmitasertib] + CS(=O)(=O)CCNCc1ccc(-c2ccc3ncnc(Nc4ccc(OCc5cccc(F)c5)c(Cl)c4)c3c2)o1 [Lapatinib] (partner 2 µM)
Method in brief: as §1

[3] = compound: O=C(O)c1ccc2c(c1)nc(Nc1cccc(Cl)c1)c1ccncc12 [Silmitasertib] + CS(=O)(=O)N1CCN(Cc2cc3nc(-c4cccc5[nH]ncc45)nc(N4CCOCC4)c3s2)CC1 [Pictilisib] (partner 1 µM)
Method in brief: as §1

[4] = compound: O=C(O)c1ccc2c(c1)nc(Nc1cccc(Cl)c1)c1ccncc12 [Silmitasertib] + CC1(C)CCC(c2ccc(Cl)cc2)=C(CN2CCN(c3ccc(C(=O)NS(=O)(=O)c4ccc(N[C@H](CCN5CCOCC5)CSc5ccccc5)c(S(=O)(=O)C(F)(F)F)c4)cc3)CC2)C1 [Navitoclax] (partner 0.5 µM)
Method in brief: as §1

Cell Line	relative viability ([1]; first compound 0.04 µM)	relative viability ([1]; first compound 0.4 µM)	relative viability ([1]; first compound 1.265 µM)	relative viability ([1]; first compound 4 µM)	relative viability (Silmitasertib + OSI-027; first compound 0.04 µM)	relative viability (Silmitasertib + OSI-027; first compound 0.4 µM)	relative viability (Silmitasertib + OSI-027; first compound 1.265 µM)	relative viability (Silmitasertib + OSI-027; first compound 4 µM)	relative viability ([2]; first compound 0.04 µM)	relative viability ([2]; first compound 0.4 µM)	relative viability ([2]; first compound 1.265 µM)	relative viability ([2]; first compound 4 µM)	relative viability ([3]; first compound 0.04 µM)	relative viability ([3]; first compound 0.4 µM)	relative viability ([3]; first compound 1.265 µM)	relative viability ([3]; first compound 4 µM)	relative viability ([4]; first compound 0.04 µM)	relative viability ([4]; first compound 0.4 µM)	relative viability ([4]; first compound 1.265 µM)	relative viability ([4]; first compound 4 µM)
ABC-1	0.402	0.353	0.281	0.226	0.52	0.37	0.221	0.226	1.19	0.848	0.58	0.884	1.12	0.561	0.303	0.345				
NCI-H1651	0.957	0.894	1.02	0.934	0.822	0.667	0.642	0.704	1.08	0.997	0.99	0.626	0.615	0.657	0.669	0.543	1.01	1.06	1.09	1.02
201T	1.03	1.1	1.16	1.2	0.821	0.631	0.719	0.462	1.04	1.04	1.06	1.14	0.739	0.665	0.68	0.694	1.21	1.19	1.26	1.31
NCI-H3122	1.11	0.935	1.03	1.12	0.993	0.888	0.972	0.826	1.07	0.975	1.07	1.08	0.694	0.53	0.634	0.644	1.01	0.996	1.01	1.08
A549									1.23	1.08	0.781	0.736	0.582	0.566	0.497	0.513	1.44	1.16	1.27	1.04
NCI-H441	0.514		0.496	0.17	0.629		0.337	0.26					0.469		0.285	0.315	0.463		0.509	0.385
LCLC-103H	1.15	0.956	0.817	0.739	0.519	0.4	0.438	0.384					0.578	0.702	0.565	0.446				
ChaGo-K-1	1.32	0.934	0.957	0.537	0.602	0.456	0.567	0.353					1.26	0.59	0.607	0.486	1.45	0.917	0.84	0.574
